Assay results as given in patent US8802597B2, “Herbicidal pyrimidines” (E I du Pont de Nemours and Company, priority 2003, dated 2014).
Where two headings read alike, the source gives them in different places.

What was measured:
Type in all cases: in vivo
[1] = tested on: Surinam grass (Brachiaria decumbens); experiment: Test B pre/postemergence; settings: Urochloa decumbens; for pest or weed control at 125 g/ha: 125 g ai/ha; for pest or weed control at 500 g/ha: 500 g ai/ha
Method in brief: (§1)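 Compounds in non-phytotoxic solvent with surfactant applied preemergence to planted seeds or postemergence to plants 2 to 18 cm tall (1- to 4-leaf stage). Greenhouse 13 to 15 days, then visual rating against controls on a 0 to 100 scale (100 = complete control).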

[2] = tested on: barnyardgrass (Echinochloa crus-galli); experiment: Test B pre/postemergence; settings: for pest or weed control at 500 g/ha: 500 g ai/ha
Method in brief: as §1

[3] = tested on: cocklebur (Xanthium strumarium); experiment: Test B pre/postemergence; settings: Xanthium strumarium; for pest or weed control at 125 g/ha: 125 g ai/ha; for pest or weed control at 500 g/ha: 500 g ai/ha
Method in brief: as §1

corn (Zea mays) = experiment: Test B pre/postemergence
Method in brief: as §1

[4] = tested on: crabgrass (Digitaria sanguinalis); experiment: Test B pre/postemergence; settings: for pest or weed control at 500 g/ha: 500 g ai/ha
Method in brief: as §1

[5] = tested on: giant foxtail (Setaria faberii); experiment: Test B pre/postemergence; settings: for pest or weed control at 500 g/ha: Setaria faberi, 500 g ai/ha
Method in brief: as §1

[6] = tested on: lambsquarters (Chenopodium album); experiment: Test B pre/postemergence; settings: Chenopodium album; for pest or weed control at 125 g/ha: 125 g ai/ha; for pest or weed control at 500 g/ha: 500 g ai/ha
Method in brief: as §1

[7] = tested on: morningglory (Ipomoea coccinea); experiment: Test B pre/postemergence; settings: for pest or weed control at 500 g/ha: 500 g ai/ha
Method in brief: as §1

[8] = tested on: pigweed (Amaranthus retroflexus); experiment: Test B pre/postemergence; settings: Amaranthus retroflexus; for pest or weed control at 125 g/ha: 125 g ai/ha; for pest or weed control at 500 g/ha: 500 g ai/ha
Method in brief: as §1

[9] = tested on: velvetleaf (Abutilon theophrasti); experiment: Test B pre/postemergence; settings: Abutilon theophrasti; for pest or weed control at 125 g/ha: 125 g ai/ha; for pest or weed control at 500 g/ha: 500 g ai/ha
Method in brief: as §1

[10] = tested on: wheat (Triticum aestivum); experiment: Test B pre/postemergence; settings: for plant injury at 500 g/ha: 500 g ai/ha
Method in brief: as §1

[11] = tested on: blackgrass (Alopecurus myosuroides); experiment: Test B postemergence
Method in brief: as §1

wild oat (Avena fatua) = experiment: Test B postemergence
Method in brief: as §1

[12] = tested on: barnyardgrass (Echinochloa crus-galli); experiment: Test B flooded paddy test; settings: Echinochloa crus-galli, Flood, 1000 g ai/ha; scale 0 (no effect) to 100 (complete control); read-out: Plant response rating, Barnyardgrass
Method in brief: (§2)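 Visual injury scoring (0 = no effect, 100 = complete control) versus controls made 13 to 15 days after treatment in the greenhouse. Test species were grown in flooded paddy to the 2-leaf stage: rice, barnyardgrass, umbrella sedge, duck salad.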

[13] = tested on: duck salad (Heteranthera limosa); experiment: Test B flooded paddy test; settings: Heteranthera limosa, Flood, 1000 g ai/ha; scale 0 to 100; read-out: Plant response rating, Ducksalad
Method in brief: as §2

rice (Oryza sativa) = experiment: Test B flooded paddy test; settings: Oryza sativa, Flood, 1000 g ai/ha; scale 0 to 100; read-out: Plant response rating, Rice
Method in brief: as §2

[14] = tested on: umbrella sedge (Cyperus difformis); experiment: Test B flooded paddy test; settings: Cyperus difformis, Flood, 1000 g ai/ha; scale 0 to 100; read-out: Plant response rating, Sedge, Umbrella
Method in brief: as §2

[15] = Preemergence, 125 g ai/ha, scale 0 to 100 (0 no effect, 100 complete control)
[16] = Postemergence, 125 g ai/ha, scale 0 to 100 (0 no effect, 100 complete control)
[17] = 125 g ai/ha, scale 0 to 100 (0 no effect, 100 complete control)

Nc1nc(C2CC2)nc(C(=O)O)c1Br [Compound 8]
pest or weed control at 125 g/ha ([1]; post-emergence, Postemergence, scale 0 to 100 (0 no effect, 100 complete control), read-out: Surinam Grass plant response rating): 80%
pest or weed control at 500 g/ha ([1]; post-emergence, Postemergence, scale 0 to 100, read-out: Plant response rating, Surinam Grass): 90%
pest or weed control at 125 g/ha ([1]; pre-emergence, Preemergence, scale 0 to 100 (0 no effect, 100 complete control), read-out: Plant response rating, Surinam Grass): 60%
pest or weed control at 500 g/ha ([1]; pre-emergence, Preemergence, scale 0 to 100 (0 no effect, 100 complete control), read-out: Surinam Grass plant response rating): 90%
pest or weed control at 125 g/ha ([2]; Echinochloa crus-galli, post-emergence, Postemergence, 125 g ai/ha, scale 0 to 100 (0 no effect, 100 complete control), read-out: Barnyardgrass plant response rating): 90%
pest or weed control at 500 g/ha ([2]; Echinochloa crus-galli, post-emergence, Postemergence, scale 0 to 100, read-out: Plant response rating, Barnyardgrass): 90%
pest or weed control at 500 g/ha ([2]; Echinochloa crus-galli, pre-emergence, Preemergence, scale 0 to 100 (0 no effect, 100 complete control), read-out: Barnyardgrass plant response rating): 90%
Plant response rating, Barnyardgrass [2, 15]: 70
pest or weed control at 125 g/ha ([3]; post-emergence, Postemergence, scale 0 to 100 (0 no effect, 100 complete control), read-out: Cocklebur plant response rating): 100%
pest or weed control at 500 g/ha ([3]; post-emergence, Postemergence, scale 0 to 100, read-out: Plant response rating, Cocklebur): 100%
pest or weed control at 125 g/ha ([3]; pre-emergence, Preemergence, scale 0 to 100 (0 no effect, 100 complete control), read-out: Plant response rating, Cocklebur): 90%
pest or weed control at 500 g/ha ([3]; pre-emergence, Preemergence, scale 0 to 100 (0 no effect, 100 complete control), read-out: Cocklebur plant response rating): 100%
Corn plant response rating (corn (Zea mays); [16]): 70
Plant response rating, Corn (corn (Zea mays); [15]): 90
Corn plant response rating (crop injury, 0 = no effect, 100 = complete kill) at 500 g/ha (corn (Zea mays); Zea mays, post-emergence, Postemergence, 500 g ai/ha, scale 0 to 100): 90%
plant injury at 500 g/ha (corn (Zea mays); Zea mays, pre-emergence, Preemergence, 500 g ai/ha, scale 0 to 100 (0 no effect, 100 complete control), read-out: Corn plant response rating): 90%
pest or weed control at 500 g/ha ([4]; Digitaria sanguinalis, post-emergence, Postemergence, scale 0 to 100, read-out: Plant response rating, Crabgrass): 90%
pest or weed control at 125 g/ha ([4]; Digitaria sanguinalis, pre-emergence, Preemergence, 125 g ai/ha, scale 0 to 100 (0 no effect, 100 complete control), read-out: Plant response rating, Crabgrass): 80%
pest or weed control at 500 g/ha ([4]; Digitaria sanguinalis, pre-emergence, Preemergence, scale 0 to 100 (0 no effect, 100 complete control), read-out: Crabgrass plant response rating): 90%
Crabgrass plant response rating [4, 16]: 80
Foxtail, Giant plant response rating [5, 16]: 80
Plant response rating, Foxtail, Giant [5, 15]: 50
pest or weed control at 500 g/ha ([5]; post-emergence, Postemergence, scale 0 to 100, read-out: Plant response rating, Foxtail, Giant): 90%
pest or weed control at 500 g/ha ([5]; pre-emergence, Preemergence, scale 0 to 100 (0 no effect, 100 complete control), read-out: Foxtail, Giant plant response rating): 90%
pest or weed control at 125 g/ha ([6]; post-emergence, Postemergence, scale 0 to 100 (0 no effect, 100 complete control), read-out: Lambsquarters plant response rating): 100%
pest or weed control at 500 g/ha ([6]; post-emergence, Postemergence, scale 0 to 100, read-out: Plant response rating, Lambsquarters): 100%
pest or weed control at 125 g/ha ([6]; pre-emergence, Preemergence, scale 0 to 100 (0 no effect, 100 complete control), read-out: Plant response rating, Lambsquarters): 90%
pest or weed control at 500 g/ha ([6]; pre-emergence, Preemergence, scale 0 to 100 (0 no effect, 100 complete control), read-out: Lambsquarters plant response rating): 100%
pest or weed control at 125 g/ha ([7]; Ipomoea, post-emergence, Postemergence, 125 g ai/ha, scale 0 to 100 (0 no effect, 100 complete control), read-out: Morningglory plant response rating): 100%
pest or weed control at 500 g/ha ([7]; Ipomoea, post-emergence, Postemergence, scale 0 to 100, read-out: Plant response rating, Morningglory): 100%
pest or weed control at 500 g/ha ([7]; Ipomoea, pre-emergence, Preemergence, scale 0 to 100 (0 no effect, 100 complete control), read-out: Morningglory plant response rating): 100%
Plant response rating, Morningglory [7, 15]: 100
pest or weed control at 125 g/ha ([8]; post-emergence, Postemergence, scale 0 to 100 (0 no effect, 100 complete control), read-out: Pigweed plant response rating): 100%
pest or weed control at 500 g/ha ([8]; post-emergence, Postemergence, scale 0 to 100, read-out: Plant response rating, Pigweed): 100%
pest or weed control at 125 g/ha ([8]; pre-emergence, Preemergence, scale 0 to 100 (0 no effect, 100 complete control), read-out: Plant response rating, Pigweed): 100%
pest or weed control at 500 g/ha ([8]; pre-emergence, Preemergence, scale 0 to 100 (0 no effect, 100 complete control), read-out: Pigweed plant response rating): 100%
pest or weed control at 125 g/ha ([9]; post-emergence, Postemergence, scale 0 to 100 (0 no effect, 100 complete control), read-out: Velvetleaf plant response rating): 80%
pest or weed control at 500 g/ha ([9]; post-emergence, Postemergence, scale 0 to 100, read-out: Plant response rating, Velvetleaf): 100%
pest or weed control at 125 g/ha ([9]; pre-emergence, Preemergence, scale 0 to 100 (0 no effect, 100 complete control), read-out: Plant response rating, Velvetleaf): 80%
pest or weed control at 500 g/ha ([9]; pre-emergence, Preemergence, scale 0 to 100 (0 no effect, 100 complete control), read-out: Velvetleaf plant response rating): 100%
Wheat plant response rating [10, 16]: 0
plant injury at 500 g/ha ([10]; Triticum aestivum, post-emergence, Postemergence, scale 0 to 100, read-out: Plant response rating, Wheat): 0%
plant injury at 125 g/ha ([10]; Triticum aestivum, pre-emergence, Preemergence, 125 g ai/ha, scale 0 to 100 (0 no effect, 100 complete control), read-out: Plant response rating, Wheat): 60%
plant injury at 500 g/ha ([10]; Triticum aestivum, pre-emergence, Preemergence, scale 0 to 100 (0 no effect, 100 complete control), read-out: Wheat plant response rating): 80%
Blackgrass plant response rating [11, 17]: 0
pest or weed control at 500 g/ha ([11]; Alopecurus myosuroides, post-emergence, 500 g ai/ha, scale 0 to 100, read-out: Plant response rating, Blackgrass): 0%
Oat, Wild plant response rating (wild oat (Avena fatua); [17]): 0
pest or weed control at 500 g/ha (wild oat (Avena fatua); Avena fatua, post-emergence, 500 g ai/ha, scale 0 to 100, read-out: Plant response rating, Oat, Wild): 0%
pest or weed control at 1000 g/ha [12]: 70%
pest or weed control at 1000 g/ha [13]: 90%
plant injury at 1000 g/ha (rice (Oryza sativa)): 60%
pest or weed control at 1000 g/ha [14]: 40%
